Results on one compound are retold here after patent publication US20170275287A1, “NOVEL N2, N4, N7, 6-TETRASUBSTITUTED PTERIDINE-2,4,7-TRIAMINE AND 2, 4, 6, 7-TETRASUBSTITUTED PTERIDINE COMPOUNDS AND METHODS OF SYNTHESIS AND USE THEREOF” (Janus Biotherapeutics, Inc., priority 2014, published 2017).

The target of data set [1] is T1, TLR7 (Mus musculus, UniProt P58681).
T1 construct: endogenous in cells
T1 sequence (P58681 27-1050): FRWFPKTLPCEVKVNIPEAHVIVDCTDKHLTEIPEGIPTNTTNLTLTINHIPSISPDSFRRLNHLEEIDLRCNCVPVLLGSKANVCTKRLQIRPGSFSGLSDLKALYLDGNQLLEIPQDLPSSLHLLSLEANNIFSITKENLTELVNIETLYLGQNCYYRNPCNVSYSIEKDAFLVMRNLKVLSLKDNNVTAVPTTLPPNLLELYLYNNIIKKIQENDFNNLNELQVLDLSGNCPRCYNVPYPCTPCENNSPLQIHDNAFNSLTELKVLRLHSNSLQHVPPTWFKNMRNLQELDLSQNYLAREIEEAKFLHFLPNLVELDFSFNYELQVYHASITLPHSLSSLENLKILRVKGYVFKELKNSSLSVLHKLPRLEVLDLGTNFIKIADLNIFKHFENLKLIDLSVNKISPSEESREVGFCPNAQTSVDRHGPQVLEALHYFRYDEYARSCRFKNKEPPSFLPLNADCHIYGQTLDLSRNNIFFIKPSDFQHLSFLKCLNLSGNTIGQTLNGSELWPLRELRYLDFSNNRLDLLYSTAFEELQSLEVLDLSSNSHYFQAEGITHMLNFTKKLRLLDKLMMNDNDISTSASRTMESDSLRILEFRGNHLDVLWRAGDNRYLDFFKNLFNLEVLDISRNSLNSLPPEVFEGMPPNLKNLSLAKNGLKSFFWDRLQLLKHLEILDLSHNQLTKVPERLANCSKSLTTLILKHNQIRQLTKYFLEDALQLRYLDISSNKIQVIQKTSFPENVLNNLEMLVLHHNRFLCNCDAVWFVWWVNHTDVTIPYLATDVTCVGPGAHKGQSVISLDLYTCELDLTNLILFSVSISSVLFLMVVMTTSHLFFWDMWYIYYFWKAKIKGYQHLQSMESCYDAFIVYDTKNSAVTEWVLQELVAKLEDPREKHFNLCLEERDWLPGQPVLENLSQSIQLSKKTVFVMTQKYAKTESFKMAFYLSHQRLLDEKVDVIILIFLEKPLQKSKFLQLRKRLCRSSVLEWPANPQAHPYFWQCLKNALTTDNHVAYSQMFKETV
In words: In vivo TLR7 knockdown (JB6011 agonist challenge). As to conditions: for ED50: translated for a 25 gram mouse. Further details: species or system mice. As for the experimental part: Mice were treated with test antagonist at varying doses at T=0 hr. Agonist treatment (CpG-DNA) dosed one hour later, T=1 hr for IP groups and two hours later, T=2 hr for PO groups. Necropsy performed 3 hours post agonist treatment, T=4 hr (IP groups) or T=5 hr (PO groups). Serum cytokines induced by the TLR agonist are measured by ELISA. Groups size per dose, n=3. The mean+/−SD of two independent ELISA's at differing serum dilutions is plotted.
JB6121 was also tested in vivo for TLR7 knockdown activity utilizing the TLR7 small molecule agonist JB6011 as the agonist challenge. […] This roughly translates to a 3.92 mg/kg IP dose and 11.44 mg/kg PO dose for a 25 gram mouse.

Data set [2] is described as follows: Protein binding, human plasma (CEREP). Conditions: read-out: Protein Binding, Human Plasma, % bound (converted). The data set is classed as in vitro ADME. Here is the method:
(§1) Preliminary screening measures were conducted by CEREP. All values fall within acceptable limits (Table 5). Solubility assays where performed by CEREP, Seattle, Wash., according to Lipinski, C. A. et al., 1997, Adv. Drug Del. Rev., 46:3-26. Protein binding assays where performed by CEREP, Seattle, Wash., according to Banker, M. J. et al., 2003, J. Pharm. Sci., 92:967-974. Permeability assays where performed by CEREP, Seattle, Wash. according to Hildalgo, I. J., 1998, Gastroenterology, 96:736-749. Metabolic stability assays where performed by CEREP, Seattle, Wash., according to Obach, R. S. et al., 1997, J. Pharmacol. Exp. Ther., 283:46-58. P-glycoprotein inhibition assays where performed by CEREP, Seattle, Wash., according to Polli, J. W. et al., 2001, J. Pharm. Exp. Ther., 299:620-628. Cell viability assays where performed by CEREP, Seattle, Wash., according to Mosmann, T., 1983, J. Immunol. Met. 65:55-62. hERG automated patch clamp assays where performed by CEREP, Seattle, Wash., according to Mathes, C., 2006, Expert Opin. Ther. Targets, 10:230-241.

Data set [3] has as its system Hep-G2 cells. As to the kind of experiment: Cell viability, Hep-G2 cells (CEREP). The format is cell-based. As for the experimental part: as §1

Molecules are shown by their SMILES. Where two headings read alike, the source gives them in different places.

Take `CN1CCN(c2nc(NCCN3CCOCC3)c3nc(Cl)c(NCCN4CCOCC4)nc3n2)CC1` [JB6121, 6-chloro-2-(4-methylpiperazin-1-yl)-N^4,N^7-bis(2-morpholinoethyl)pteridine-4,7-diamine]: the ED50 in data set [1] (4 h, IP, read-out: ID50, TLR7 knockdown, IP dose) was approximately 3.92 mg/kg; in data set [1] (5 h, PO, read-out: ID50, TLR7 knockdown, PO dose) it was approximately 11.4 mg/kg. The “ID50, TLR7 knockdown, IP injection” value in data set [1] (mice, IP, JB6011 challenge) was 98.34 μg injection dose. Further, the “ID50, TLR7 knockdown, PO gavage” value in data set [1] (mice, PO, JB6011 challenge) came to 286 μg delivery dose. Moreover, in data set [2], the fraction unbound was 0.13. Further, the “Cell Viability, Hep-G2 cells, % inhibition at 100 μM” value in data set [3] amounted to 8.5%.
